Experimental findings from PubChem BioAssay AID328 (DTP/NCI, 2004) are described below.

Molecules are shown by their SMILES. Several values for one entry are separate records, joined by “and”; a condition that tells them apart may be missing. Equal values may be shown once. Inconclusive results and toxic doses are left out.

The subject of this assay is BDF1 mice, P388 leukemia ip, median survival T/C. Briefly: NCI In Vivo Anticancer Drug Screen. Data for tumor model P388 Leukemia (intraperitoneal) in B6D2F1 (BDF1) mice. Particulars: endpoint: median survival time, higher = longer survival. The gist of the method: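 In tumour-bearing mice, survival after compound treatment is set against the vehicle group and given as a quotient.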

[1] abbreviates: dose: 100.0 mg/kg/injection, schedule: Q04DX003 (ip), vehicle: saline.
Where [2] appears, read: dose: 100.0 mg/kg/injection, schedule: Q04DX003 (ip), vehicle: saline with Tween-80.
The mark [3] stands for this setting: dose: 200.0 mg/kg/injection, schedule: Q04DX003 (ip), vehicle: saline with Tween-80.
[4] abbreviates: dose: 400.0 mg/kg/injection, schedule: Q04DX003 (ip), vehicle: saline with Tween-80.
The mark [5] stands for this setting: dose: 50.0 mg/kg/injection, schedule: Q01DX009 (ip), vehicle: saline.
Where [6] appears, read: dose: 12.5 mg/kg/injection, schedule: Q04DX003 (ip), vehicle: saline with Tween-80.
The mark [7] stands for this setting: dose: 25.0 mg/kg/injection, schedule: Q04DX003 (ip), vehicle: saline with Tween-80.
[8] abbreviates: dose: 50.0 mg/kg/injection, schedule: Q04DX003 (ip), vehicle: saline with Tween-80.
Setting [9] is: dose: 50.0 mg/kg/injection, schedule: Q01DX009 (ip), vehicle: saline with Tween-80.
The mark [10] stands for this setting: dose: 100.0 mg/kg/injection, schedule: Q01DX009 (ip), vehicle: saline with Tween-80.

With `CC(C)CCCc1c[nH]c(=O)[nH]c1=O`, the T/C runs as follows: (dose: 100.0 mg/kg/injection, schedule: Q01DX001 (ip), vehicle: Klucel (hydroxypropylcellulose) (HPC)) 90 % of control; (dose: 100.0 mg/kg/injection, schedule: Q01DX009 (ip), vehicle: Klucel (hydroxypropylcellulose) (HPC)) 86 % of control; (dose: 200.0 mg/kg/injection, schedule: Q01DX001 (ip), vehicle: Klucel (hydroxypropylcellulose) (HPC)) 90 % of control; (dose: 200.0 mg/kg/injection, schedule: Q01DX009 (ip), vehicle: Klucel (hydroxypropylcellulose) (HPC)) 86 % of control; (dose: 400.0 mg/kg/injection, schedule: Q01DX001 (ip), vehicle: Klucel (hydroxypropylcellulose) (HPC)) 90 % of control; (dose: 400.0 mg/kg/injection, schedule: Q01DX009 (ip), vehicle: Klucel (hydroxypropylcellulose) (HPC)) 91 % of control.
On to `NC(=O)c1cn(C2OC(CO)C(O)C2O)c2ncn3ccnc3c12` (centres undefined), for which the T/C reads like this: (dose: 6.25 mg/kg/injection, schedule: Q04DX003 (ip), vehicle: saline) 118 % of control; (dose: 25.0 mg/kg/injection, schedule: Q04DX003 (ip), vehicle: saline) 115 % of control; under setting [1], 118 % of control.
As for `COc1ccc(N=C/C=C/c2ccccc2)cc1`, the T/C runs as follows: under setting [2], 104 % of control; under setting [3], 100 % of control; under setting [4], 109 % of control.
As for `C[N+](C)(C)c1ncnc2c1ncn2C1CCCO1` (centres undefined), the T/C is 100 % of control under setting [5]; 109 % of control (dose: 100.0 mg/kg/injection, schedule: Q01DX009 (ip), vehicle: saline); 100 % of control under setting [1]; 100 % of control (dose: 200.0 mg/kg/injection, schedule: Q04DX003 (ip), vehicle: saline).
Consider `CCOC(=O)C(C#N)c1cccc(C)c1` (centres undefined), for which the T/C is 100 % of control under setting [2] and 100 % of control under setting [3].
As to `Cc1cc(-c2ccc(Cl)cc2)[n+](C)n1C`, the T/C runs as follows: (dose: 12.5 mg/kg/injection, schedule: Q01DX009 (ip), vehicle: saline with Tween-80) 100 % of control; (dose: 25.0 mg/kg/injection, schedule: Q01DX009 (ip), vehicle: saline with Tween-80) 111 % of control.
For the compound `Cc1cnc(=S)n(-c2ccccc2)c1`, the T/C under setting [6] is 95 % of control, the T/C under setting [7] was 104 % of control and the T/C under setting [8] was 98 % of control.
`Nc1nnc(N)s1`: the T/C by setting is: (dose: 100.0 mg/kg/injection, schedule: Q04DX003 (ip), vehicle: saline sonified) 100 % of control; (dose: 200.0 mg/kg/injection, schedule: Q04DX003 (ip), vehicle: saline sonified) 100 % of control; (dose: 400.0 mg/kg/injection, schedule: Q04DX003 (ip), vehicle: saline sonified) 100 % of control.
Take `O=C(O)c1cc(-c2ccccc2)[nH]c1-c1ccccc1`: the T/C under setting [5] was 90 % of control.
On to `COC(=O)CC(CC(=O)c1ccccc1)c1ccccc1` (centres undefined), for which the T/C is 95 % of control under setting [9]; 97 % of control under setting [10]; 87 % of control (dose: 200.0 mg/kg/injection, schedule: Q01DX009 (ip), vehicle: saline with Tween-80); 88 % of control (dose: 400.0 mg/kg/injection, schedule: Q01DX009 (ip), vehicle: saline with Tween-80).
As to `CN=S(=O)(OCC#CCOS(=O)(=NC)c1ccc(C)cc1)c1ccc(C)cc1` (centres undefined), the T/C reads like this: (dose: 50.0 mg/kg/injection, schedule: Q01DX009 (ip), vehicle: saline + alcohol) 151 % of control; (dose: 100.0 mg/kg/injection, schedule: Q01DX009 (ip), vehicle: saline + alcohol) 87 % of control; under setting [10], 94 % of control.
For the compound `COc1cc(C=Nc2cccc(C(=O)O)c2)ccc1N(CCCl)CCCl`, the T/C (dose: 66.0 mg/kg/injection, schedule: Q04DX003 (ip), vehicle: saline with Tween-80) is 260 % of control.
Consider `CS(=O)(=O)OCCCNCCCOS(C)(=O)=O`, for which the T/C is 228 % of control (dose: 10.0 mg/kg/injection, schedule: Q01DX009 (ip), vehicle: saline); 255 % of control (dose: 10.0 mg/kg/injection, schedule: Q01DX010 (ip), vehicle: saline); 186 % of control (dose: 12.0 mg/kg/injection, schedule: Q04DX003 (ip), vehicle: saline); 204 % of control (dose: 19.0 mg/kg/injection, schedule: Q04DX003 (ip), vehicle: saline); 255 % of control (dose: 20.0 mg/kg/injection, schedule: Q01DX009 (ip), vehicle: saline); 300 % of control (dose: 20.0 mg/kg/injection, schedule: Q01DX010 (ip), vehicle: saline). Moreover, the T/C reads like this: (dose: 29.0 mg/kg/injection, schedule: Q04DX003 (ip), vehicle: saline) 209 % of control; (dose: 40.0 mg/kg/injection, schedule: Q01DX009 (ip), vehicle: saline) 282 % of control; (dose: 40.0 mg/kg/injection, schedule: Q01DX010 (ip), vehicle: saline) 300 % of control; (dose: 45.0 mg/kg/injection, schedule: Q04DX003 (ip), vehicle: saline) 240 % of control; (dose: 66.0 mg/kg/injection, schedule: Q04DX003 (ip), vehicle: saline) 245 % of control; (dose: 80.0 mg/kg/injection, schedule: Q01DX010 (ip), vehicle: saline) 94 % of control. Further, the T/C (dose: 150.0 mg/kg/injection, schedule: Q04DX003 (ip), vehicle: saline) was 300 % of control.
For `COC(=O)Cc1[nH]ccc1C(=O)OC`, the T/C reads like this: (dose: 100.0 mg/kg/injection, schedule: Q01DX001 (ip), vehicle: saline with Tween-80) 103 % of control; (dose: 200.0 mg/kg/injection, schedule: Q01DX001 (ip), vehicle: saline with Tween-80) 109 % of control; (dose: 400.0 mg/kg/injection, schedule: Q01DX001 (ip), vehicle: saline with Tween-80) 120 % of control.
With `CN(C)N=C(Cc1ccccc1)Cc1ccccc1`, the T/C was 108 % of control under setting [6], 108 % of control under setting [7] and 104 % of control under setting [8].
On to `CSc1ncc(C)c[n+]1-c1ccccc1`, for which the T/C is 106 % of control (dose: 50.0 mg/kg/injection, schedule: Q04DX002 (ip), vehicle: saline with Tween-80) and 107 % of control (dose: 100.0 mg/kg/injection, schedule: Q04DX002 (ip), vehicle: saline with Tween-80).
Take `CC(C)(C)OP(=O)(OC(C)(C)C)c1ccccc1`: the T/C was 118 % of control under setting [9] and 98 % of control under setting [10].
For the compound `COc1cc(C(Cc2ccnc3ccccc23)Cc2ccnc3ccccc23)ccc1N(C)C`, the T/C runs as follows: under setting [2], 91 % of control; under setting [3], 104 % of control; under setting [4], 115 % of control.
As for `Cc1ccc(S(=O)(=O)OCCN(CCOS(=O)(=O)c2ccc(C)cc2)c2cc(OCc3ccccc3)cc(OCc3ccccc3)c2)cc1`, the T/C by setting is: (dose: 1.56 mg/kg/injection, schedule: Q01DX009 (ip), vehicle: water) 90 % of control and 99 % of control; (dose: 3.12 mg/kg/injection, schedule: Q01DX009 (ip), vehicle: water) 93 % of control and 100 % of control; (dose: 6.25 mg/kg/injection, schedule: Q01DX009 (ip), vehicle: water) 98 % of control and 110 % of control; (dose: 12.5 mg/kg/injection, schedule: Q01DX009 (ip), vehicle: water) 91 % of control and 100 % of control; (dose: 25.0 mg/kg/injection, schedule: Q01DX009 (ip), vehicle: water) 93 % of control and 100 % of control; (dose: 50.0 mg/kg/injection, schedule: Q04DX003 (ip), vehicle: water) 91 % of control. Further, the T/C by setting is: (dose: 100.0 mg/kg/injection, schedule: Q01DX009 (ip), vehicle: water) 88 % of control; (dose: 100.0 mg/kg/injection, schedule: Q04DX003 (ip), vehicle: water) 89 % of control; (dose: 200.0 mg/kg/injection, schedule: Q04DX003 (ip), vehicle: water) 97 % of control; (dose: 400.0 mg/kg/injection, schedule: Q04DX003 (ip), vehicle: water) 97 % of control.
On to `COc1cc(C)c(Cl)c(C)c1C(C)=O`, for which the T/C is 104 % of control (dose: 50.0 mg/kg/injection, schedule: Q04DX003 (ip), vehicle: Klucel (hydroxypropylcellulose) (HPC)); 95 % of control (dose: 100.0 mg/kg/injection, schedule: Q04DX003 (ip), vehicle: Klucel (hydroxypropylcellulose) (HPC)); 86 % of control (dose: 200.0 mg/kg/injection, schedule: Q04DX003 (ip), vehicle: Klucel (hydroxypropylcellulose) (HPC)).
